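Test compounds were applied to cells in 96-well plates for 48 hours at 5 doses. The concentration for 50% growth inhibition is given as GI50.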 Active and inactive are the calls of the source. Rule as the data show it: active = GI50 up to about 1.1 µM and inactive = higher.
Legend:
Assay in all cases: NCI tumour cell line growth inhibition, 48 h
NCI-H226 = test system: NCI-H226
U-251 = test system: U-251
HCT-116 = test system: HCT-116
RXF 393 = test system: RXF 393
NCI-H522 = test system: NCI-H522
SK-OV-3 = test system: SK-OV-3
SF-539 = test system: SF-539
SN12C = test system: SN12C
SNB-19 = test system: SNB-19
UACC-257 = test system: UACC-257
EKVX = test system: EKVX
UO-31 = test system: UO-31
RPMI-8226 = test system: RPMI-8226
HT-29 = test system: HT-29
SK-MEL-28 = test system: SK-MEL-28
HOP-92 = test system: HOP-92
HL-60 = test system: HL-60
MOLT-4 = test system: MOLT-4
SF-268 = test system: SF-268
A498 = test system: A498

SMILES	GI50 (NCI-H226)	GI50 (U-251)	GI50 (HCT-116)	GI50 (RXF 393)	GI50 (NCI-H522)	GI50 (SK-OV-3)	GI50 (SF-539)	GI50 (SN12C)	GI50 (SNB-19)	GI50 (UACC-257)	GI50 (EKVX)	GI50 (UO-31)	GI50 (RPMI-8226)	GI50 (HT-29)	GI50 (SK-MEL-28)	GI50 (HOP-92)	GI50 (HL-60)	GI50 (MOLT-4)	GI50 (SF-268)	GI50 (A498)
CCOc1ccccc1NC(=O)CCc1nnc(S)[nH]1	> 100 µM (inactive)	> 100 µM (inactive)	> 100 µM (inactive)	> 100 µM (inactive)	> 100 µM (inactive)	> 100 µM (inactive)	> 100 µM (inactive)	> 100 µM (inactive)	> 100 µM (inactive)	> 100 µM (inactive)	> 100 µM (inactive)	> 100 µM (inactive)	> 100 µM (inactive)	> 100 µM (inactive)	> 100 µM (inactive)	> 100 µM (inactive)	> 100 µM (inactive)	> 100 µM (inactive)	> 100 µM (inactive)	–
O=C(O)CC(O)(C(=O)O)C(O)C(=O)O (stereo not drawn)	> 1000 µM (inactive)	> 1000 µM (inactive)	> 1000 µM (inactive)	> 1000 µM (inactive)	> 1000 µM (inactive)	> 1000 µM (inactive)	> 1000 µM (inactive)	> 1000 µM (inactive)	> 1000 µM (inactive)	> 1000 µM (inactive)	> 1000 µM (inactive)	–	787 µM (inactive)	> 1000 µM (inactive)	> 1000 µM (inactive)	–	> 1000 µM (inactive)	> 1000 µM (inactive)	> 1000 µM (inactive)	–
CCOC(=O)C(O)(NC(C)=O)C(F)(F)F (stereo not drawn)	> 100 µM (inactive)	> 100 µM (inactive)	> 100 µM (inactive)	> 100 µM (inactive)	> 100 µM (inactive)	> 100 µM (inactive)	> 100 µM (inactive)	> 100 µM (inactive)	> 100 µM (inactive)	> 100 µM (inactive)	> 100 µM (inactive)	> 100 µM (inactive)	> 100 µM (inactive)	> 100 µM (inactive)	> 100 µM (inactive)	26.2 µM (inactive)	43.8 µM (inactive)	> 100 µM (inactive)	> 100 µM (inactive)	–
O=C1O[C@H](c2ccc3c(c2)OCO3)[C@H]2CO[C@@H](c3ccc4c(c3)OCO4)[C@@H]12	> 100 µM (inactive)	> 100 µM (inactive)	> 100 µM (inactive)	> 100 µM (inactive)	94.8 µM (inactive)	> 100 µM (inactive)	> 100 µM (inactive)	> 100 µM (inactive)	> 100 µM (inactive)	54.6 µM (inactive)	> 100 µM (inactive)	> 100 µM (inactive)	33.9 µM (inactive)	77.6 µM (inactive)	> 100 µM (inactive)	> 100 µM (inactive)	> 100 µM (inactive)	43.5 µM (inactive)	> 100 µM (inactive)	–
COC1OC(C(C)O)C2OC(C)(C)OC12 (stereo not drawn)	> 100 µM (inactive)	> 100 µM (inactive)	> 100 µM (inactive)	–	> 100 µM (inactive)	> 100 µM (inactive)	> 100 µM (inactive)	> 100 µM (inactive)	> 100 µM (inactive)	> 100 µM (inactive)	> 100 µM (inactive)	> 100 µM (inactive)	> 100 µM (inactive)	> 100 µM (inactive)	> 100 µM (inactive)	–	> 100 µM (inactive)	> 100 µM (inactive)	> 100 µM (inactive)	> 100 µM (inactive)
O=C(/C=C/c1ccccc1O)/C=C/c1ccccc1O	–	0.482 µM (active)	0.332 µM (active)	–	–	1.86 µM (inactive)	1.55 µM (inactive)	1.72 µM (inactive)	1.82 µM (inactive)	4.43 µM (inactive)	–	1.83 µM (inactive)	0.19 µM (active)	1.92 µM (inactive)	1.81 µM (inactive)	1.39 µM (inactive)	2.9 µM (inactive)	1.26 µM (inactive)	0.254 µM (active)	1.82 µM (inactive)
CCOC(=O)[N-]c1ccc(S(=O)(=O)[O+](C)CCl)cc1.CCOC(=O)[N-]c1ccc(S(=O)(=O)[O+](C)CCl)cc1.NC(=O)N=O.NC(=O)OCCCl	–	> 100 µM (inactive)	> 100 µM (inactive)	–	–	> 100 µM (inactive)	> 100 µM (inactive)	> 100 µM (inactive)	> 100 µM (inactive)	> 100 µM (inactive)	–	> 100 µM (inactive)	–	> 100 µM (inactive)	> 100 µM (inactive)	> 100 µM (inactive)	> 100 µM (inactive)	> 100 µM (inactive)	> 100 µM (inactive)	> 100 µM (inactive)
Cc1ccc(-c2n[nH]c(=O)n2N2C(=O)c3ccccc3C2=O)cc1	> 100 µM (inactive)	> 100 µM (inactive)	> 100 µM (inactive)	> 100 µM (inactive)	> 100 µM (inactive)	–	> 100 µM (inactive)	> 100 µM (inactive)	> 100 µM (inactive)	> 100 µM (inactive)	–	> 100 µM (inactive)	> 100 µM (inactive)	> 100 µM (inactive)	> 100 µM (inactive)	–	> 100 µM (inactive)	> 100 µM (inactive)	> 100 µM (inactive)	–
NCc1ccccc1C1CSCSC1	> 100 µM (inactive)	> 100 µM (inactive)	> 100 µM (inactive)	39.8 µM (inactive)	> 100 µM (inactive)	> 100 µM (inactive)	> 100 µM (inactive)	> 100 µM (inactive)	–	> 100 µM (inactive)	–	> 100 µM (inactive)	–	> 100 µM (inactive)	> 100 µM (inactive)	–	> 100 µM (inactive)	> 100 µM (inactive)	> 100 µM (inactive)	–
COC(=O)C(CC(=O)c1cc2c(cc1I)OCO2)Cc1cc(OC)c(OC)c(OC)c1I (stereo not drawn)	> 100 µM (inactive)	65.6 µM (inactive)	19.2 µM (inactive)	73.5 µM (inactive)	9.06 µM (inactive)	> 100 µM (inactive)	> 100 µM (inactive)	> 100 µM (inactive)	> 100 µM (inactive)	16.4 µM (inactive)	> 100 µM (inactive)	–	8.13 µM (inactive)	> 100 µM (inactive)	> 100 µM (inactive)	14.3 µM (inactive)	16.7 µM (inactive)	8.67 µM (inactive)	> 100 µM (inactive)	–
CSc1nncc2[nH]c(C)nc12	> 100 µM (inactive)	> 100 µM (inactive)	> 100 µM (inactive)	–	> 100 µM (inactive)	> 100 µM (inactive)	> 100 µM (inactive)	> 100 µM (inactive)	–	> 100 µM (inactive)	> 100 µM (inactive)	> 100 µM (inactive)	> 100 µM (inactive)	> 100 µM (inactive)	> 100 µM (inactive)	–	> 100 µM (inactive)	> 100 µM (inactive)	–	> 100 µM (inactive)
CCOC(=O)C12CCC(=O)C=C1[C@@H](C)C(=O)CC2 (stereo partly drawn)	> 100 µM (inactive)	> 100 µM (inactive)	> 100 µM (inactive)	> 100 µM (inactive)	–	> 100 µM (inactive)	–	> 100 µM (inactive)	–	> 100 µM (inactive)	> 100 µM (inactive)	> 100 µM (inactive)	> 100 µM (inactive)	> 100 µM (inactive)	> 100 µM (inactive)	93.3 µM (inactive)	> 100 µM (inactive)	–	> 100 µM (inactive)	–
O=C1c2ccccc2C2(O)NC(=S)N(c3ccccc3)C12O (stereo not drawn)	–	> 100 µM (inactive)	> 100 µM (inactive)	–	> 100 µM (inactive)	> 100 µM (inactive)	> 100 µM (inactive)	–	> 100 µM (inactive)	> 100 µM (inactive)	> 100 µM (inactive)	> 100 µM (inactive)	> 100 µM (inactive)	> 100 µM (inactive)	> 100 µM (inactive)	> 100 µM (inactive)	> 100 µM (inactive)	> 100 µM (inactive)	> 100 µM (inactive)	–
Cc1nc(O)nc2c1C(NCCCN(C)C)c1cc(Cl)ccc1N2 (stereo not drawn)	16.6 µM (inactive)	15.9 µM (inactive)	15 µM (inactive)	13.6 µM (inactive)	15.2 µM (inactive)	16.9 µM (inactive)	13.5 µM (inactive)	14.8 µM (inactive)	16.4 µM (inactive)	13.2 µM (inactive)	16.3 µM (inactive)	13.6 µM (inactive)	17.3 µM (inactive)	10.4 µM (inactive)	14 µM (inactive)	10.9 µM (inactive)	14 µM (inactive)	19.8 µM (inactive)	16.2 µM (inactive)	–
COc1cc(C2C(Cl)C(=O)N2NC(=O)c2ccc(NC(C)=O)cc2)cc(Br)c1O (stereo not drawn)	> 100 µM (inactive)	> 100 µM (inactive)	> 100 µM (inactive)	–	> 100 µM (inactive)	> 100 µM (inactive)	> 100 µM (inactive)	–	> 100 µM (inactive)	> 100 µM (inactive)	–	> 100 µM (inactive)	> 100 µM (inactive)	> 100 µM (inactive)	> 100 µM (inactive)	> 100 µM (inactive)	> 100 µM (inactive)	> 100 µM (inactive)	> 100 µM (inactive)	–
CC(=O)Nc1ccc(/C=C(\NC(=O)c2ccccc2)C(=O)NNS(=O)(=O)c2ccc(C)cc2)cc1	> 100 µM (inactive)	> 100 µM (inactive)	> 100 µM (inactive)	> 100 µM (inactive)	> 100 µM (inactive)	> 100 µM (inactive)	> 100 µM (inactive)	> 100 µM (inactive)	> 100 µM (inactive)	> 100 µM (inactive)	> 100 µM (inactive)	> 100 µM (inactive)	22.5 µM (inactive)	> 100 µM (inactive)	> 100 µM (inactive)	> 100 µM (inactive)	> 100 µM (inactive)	> 100 µM (inactive)	78.9 µM (inactive)	–

Source: ChEMBL document CHEMBL1201862, “PubChem BioAssay data set” (2004)
